# Laboratory results published in patent publication US20050148495A1, “Methods and materials including for treating acne” (priority 2003, published 2005).
# Read-outs that look alike come from different tables or passages of the source. Non-standard residues stand in square brackets, D forms with d. Residues, ends and D or L forms follow the SMILES beside them. d1Nal = N[C@H](Cc1cccc2ccccc12)C(=O)O
# What was measured:
# physchem = settings: aqueous solution
# Method: In additional studies, a variety of formulations of XMP.629 were tested for stability under various temperatures, such as 25° C., 40° C., and 50° C., and at various time points, such as 0.5, 1, and 2 months.
# The solubility of XMP.629 acetate in various solvents was also evaluated.
# Solubility studies were conducted using a variety of solvent systems and/or skin penetration enhancers.
# P. granulosum = assay type: cell-based, Propionibacterium granulosum
# Method: This example addresses studies relating to the antimicrobial activities of XMP.629. An in vitro assessment of antibiotic activity in XMP.629 and various known antibiotics against a representative panel of bacterial strains associated with acne was conducted. A broth dilution methodology was employed using guidelines established by National Committee for Clinical Laboratory Standards (NCCLS) for anaerobic organisms to establish an antibacterial profile for XMP.629. Assays to determine the minimal bactericidal concentrations (MBC) and minimal inhibitory concentration (MIC) were conducted for XMP.629 and other known antibiotics. Furthermore, test to determine post antibiotic effect (PAE) of XMP.629 were done.
# Inoculum from a representative panel of bacterial strains associated with acne, such as P. acnes, P. avidum, P. granulosum, and Staphylococcus epidermis was prepared by suspending approximately 5-10 isolated bacterial colonies in pre-reduced MicroScan® Inoculum Water (Dade Behring, Deerfield, Ill.), and growing the bacterial suspension to log phase (approximately 48 hrs). An inoculum of between 1-5×10^6/mL was achieved by adding 100 μL of the suspension to 25 mL Brain Heart Infusion Broth (BHI) (Anaerobe Systems, Morgan Hill, Calif.).
# A stock solution of XMP.629 dissolved in water at a concentration of 4.0 mg/mL was prepared. Dilute solutions of XMP.629 at concentrations ranging from about 1.25 to about 160 μg/mL were made in either water or formulation buffer (130 mM sodium chloride, 0.2% P103 (poloxamer 333), and 0.10% EDTA, pH 7.3). Aqueous stock solutions of clindamycin and erythromycin were prepared in water.
# Each tube, containing a final volume of 1 mL, was mixed by vortexing. Control tubes containing only water or formulation buffer were prepared for each isolate. Initial growth controls were determined by removing 10 μL from the water control tube and diluting it by 100 fold. From this dilution, 10 μL was used for inoculation and for spreading over the surface onto Laked Blood Agar (LBA) (Anaerobe Systems, Morgan Hill, Calif.) plates. The tubes and plates were incubated in an anaerobic atmosphere at 37° C. for 48 h. After incubation, the tubes were mixed and 10 μL samples were removed from each tube for additional plating. These plates were then further incubated in an anaerobic atmosphere at 37° C. for 48-72 h and the resulting colonies were counted. After adjusting for the dilution factor, the lowest concentration of drug or combination of drugs reducing the inoculum by ≧99.9% was considered to be the minimum bactericidal concentration (MBC). MBC50 and 90 values represent where 50 and 90%, respectively, of the tested strain's MBC values are equal to or less than the indicated concentration. The lowest concentration of antibiotic(s) that inhibited visible growth in the culture tubes was considered to be the minimal inhibitory concentration (MIC).
# For comparison, additional Propionibacterium strains, were tested.
# P. acnes = settings: each strain: UPC686, ATCC 6919 intermediate-erythromycin, UP2022
# [1] = RMA 5740, Formulation Buffer Solvent, Study 1
# [2] = RMA 5740, Formulation Buffer Solvent, Study 2
# [3] = RMA 5740, Water Solvent, Study 1
# [4] = RMA 5740, Water Solvent, Study 2
# [5] = RMA 6867, Formulation Buffer Solvent, Study 1
# [6] = RMA 6867, Formulation Buffer Solvent, Study 2
# [7] = RMA 6867, Water Solvent, Study 1
# [8] = RMA 6867, Water Solvent, Study 2
# [9] = RMA 7093, Formulation Buffer Solvent, Study 1
# [10] = RMA 7093, Formulation Buffer Solvent, Study 2
# [11] = RMA 7093, Water Solvent, Study 1
# [12] = RMA 7093, Water Solvent, Study 2
# [13] = RMA 11787, Formulation Buffer Solvent, Study 1
# [14] = RMA 11787, Formulation Buffer Solvent, Study 2
# [15] = RMA 11787, Water Solvent, Study 1
# [16] = RMA 11787, Water Solvent, Study 2
structure (smiles),measurement,setting,value
"CC(C)C[C@@H](NC(=O)[C@H](N)CCCCN)C(=O)N[C@H](Cc1ccccc1)C(=O)N[C@H](CCCNC(=N)N)C(=O)N[C@H](Cc1cccc2ccccc12)C(=O)N[C@H](CCC(N)=O)C(=O)N[C@H](C)C(=O)N[C@H](CCCCN)C(=O)N[C@H](Cc1cccc2ccccc12)C(N)=O [XMP.629, NH2-lys-leu-phe-arg-(3-(1-naphthyl)-ala)-gln-ala-lys-(3-(1-naphthyl)-ala)-CONH2] (H-[dK][dL][dF][dR][d1Nal][dQ][dA][dK][d1Nal]-NH2)",solubility,physchem,≥ 20 mg/mL
same,MBC50,"P. granulosum; P. granulosum, 4 strains",0.25 µg/mL
same,MBC90,"P. granulosum; P. granulosum, 4 strains",4 µg/mL
same,MBC Range,"P. granulosum; P. granulosum, 4 strains, in µg/mL",0.25-4
same,MBC,P. granulosum; [1],2 µg/mL
same,MIC,P. granulosum; [1],1 µg/mL
same,MBC,P. granulosum; [2],0.25 µg/mL
same,MIC,P. granulosum; [2],0.25 µg/mL
same,MBC,P. granulosum; [3],4 µg/mL
same,MIC,P. granulosum; [3],2 µg/mL
same,MBC,P. granulosum; [4],1 µg/mL
same,MIC,P. granulosum; [4],1 µg/mL
same,MBC,P. granulosum; [5],2 µg/mL
same,MIC,P. granulosum; [5],0.5 µg/mL
same,MBC,P. granulosum; [6],4 µg/mL
same,MIC,P. granulosum; [6],4 µg/mL
same,MBC,P. granulosum; [7],2 µg/mL
same,MIC,P. granulosum; [7],1 µg/mL
same,MBC,P. granulosum; [8],4 µg/mL
same,MIC,P. granulosum; [8],4 µg/mL
same,MBC,P. granulosum; [9],2 µg/mL
same,MIC,P. granulosum; [9],1 µg/mL
same,MBC,P. granulosum; [10],0.25 µg/mL
same,MIC,P. granulosum; [10],0.25 µg/mL
same,MBC,P. granulosum; [11],2 µg/mL
same,MIC,P. granulosum; [11],2 µg/mL
same,MBC,P. granulosum; [12],0.5 µg/mL
same,MIC,P. granulosum; [12],1 µg/mL
same,MBC,P. granulosum; [13],2 µg/mL
same,MIC,P. granulosum; [13],2 µg/mL
same,MBC,P. granulosum; [14],0.25 µg/mL
same,MIC,P. granulosum; [14],0.25 µg/mL
same,MBC,P. granulosum; [15],2 µg/mL
same,MIC,P. granulosum; [15],2 µg/mL
same,MBC,P. granulosum; [16],1 µg/mL
same,MIC,P. granulosum; [16],1 µg/mL
same,MBC,P. acnes,1 µg/mL
